# Source: patent publication US12473304B2, “Heterocyclic PAD4 inhibitors” (BRISTOL-MYERS SQUIBB COMPANY, priority 2020, dated 2025)
# Target: human PAD4 (hPAD4) (Homo sapiens (Human), UniProt Q9UM07)
# Assay: RFMS Human PAD4 Functional Assay 1
# Format: biochemical
# Settings: RFMS assay 1; 5 nM hPAD4, 250 μM BAEE substrate, 50 μM calcium, 37° C.
# Summary of the method: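 Recombinant hPAD4 (5 nM) was preincubated with compound (top 50 μM, 0.5% DMSO) for 30 min at 37 °C, then reacted with 250 μM BAEE for 90 min at 37 °C in pH 7.5 HEPES buffer with 50 μM calcium and 5 μM TPEN. Product was derivatized with phenyl glyoxal and quantified by RapidFire MS.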
# human PAD4 (hPAD4), sequence (Q9UM07 whole entry): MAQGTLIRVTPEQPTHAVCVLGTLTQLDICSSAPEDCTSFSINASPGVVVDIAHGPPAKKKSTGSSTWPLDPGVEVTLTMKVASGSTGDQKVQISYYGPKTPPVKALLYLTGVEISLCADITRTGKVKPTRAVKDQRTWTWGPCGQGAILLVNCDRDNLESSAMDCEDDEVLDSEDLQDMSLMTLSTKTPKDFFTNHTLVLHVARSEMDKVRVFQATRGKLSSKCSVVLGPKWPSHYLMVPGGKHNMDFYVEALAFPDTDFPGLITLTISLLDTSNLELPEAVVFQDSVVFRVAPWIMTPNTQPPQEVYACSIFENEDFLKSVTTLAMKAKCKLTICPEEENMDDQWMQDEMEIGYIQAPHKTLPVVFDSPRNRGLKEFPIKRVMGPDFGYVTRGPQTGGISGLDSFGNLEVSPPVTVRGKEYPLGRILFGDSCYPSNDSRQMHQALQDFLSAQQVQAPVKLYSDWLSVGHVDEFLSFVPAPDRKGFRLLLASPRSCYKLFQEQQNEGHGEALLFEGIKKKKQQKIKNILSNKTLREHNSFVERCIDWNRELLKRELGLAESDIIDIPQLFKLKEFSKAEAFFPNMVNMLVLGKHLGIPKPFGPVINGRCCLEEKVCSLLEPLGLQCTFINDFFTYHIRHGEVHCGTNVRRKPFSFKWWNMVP
row,Compound,IC50 [nM]
1,"Cc1c(-c2cc3ccc(N4CC(N(C)S(C)(=O)=O)C4)cc3n2CC2CC2)nn2cc(C(=O)N3CCC[C@@H](N)C3)ccc12 [Example 366, N-[1-(2-{6-[(3R)-3-Aminopiperidine-1-carbonyl]-3-methylpyrazolo[1,5-a]pyridin-2-yl}-1-(cyclopropylmethyl)-1H-indol-6-yl)azetidin-3-yl]-N-methylmethanesulfonamide]",870
2,"Cc1c(-c2cc3ccc(-c4cccc(CNS(C)(=O)=O)c4)cc3n2CC2CC2)nn2cc(C(=O)N3C[C@H](N)C[C@@H](F)C3)ccc12 [Example 367, N-{[3-(2-{6-[(3R,5R)-3-Amino-5-fluoropiperidine-1-carbonyl]-3-methylpyrazolo[1,5-a]pyridin-2-yl}-1-(cyclopropylmethyl)-1H-indol-6-yl)phenyl]methyl}methanesulfonamide]",1000
3,"Cc1c(-c2cc3ccc(-c4cccc(-c5nn[nH]n5)c4)cc3n2CC2CC2)nn2cc(C(=O)N3C[C@H](N)C[C@@H](F)C3)ccc12 [Example 368, (3R,5R)-1-{2-[1-(Cyclopropylmethyl)-6-[3-(2H-1,2,3,4-tetrazol-5-yl)phenyl]-1H-indol-2-yl]-3-methylpyrazolo[1,5-a]pyridine-6-carbonyl}-5-fluoropiperidin-3-amine]",2800
4,"Cc1c(-c2cc3ccc(-c4cccc(CO)c4)cc3n2CC2CC2)nn2cc(C(=O)N3C[C@H](N)C[C@@H](F)C3)ccc12 [Example 371, [3-(2-{6-[(3R,5R)-3-Amino-5-fluoropiperidine-1-carbonyl]-3-methylpyrazolo[1,5-a]pyridin-2-yl}-1-(cyclopropylmethyl)-1H-indol-6-yl)phenyl]methanol]",1070
5,"Cc1c(-c2cc3ccc(-c4ccccc4C(N)=O)cc3n2CC2CC2)nn2cc(C(=O)N3C[C@H](N)C[C@@H](F)C3)ccc12 [Example 372, 2-(2-{6-[(3R,5R)-3-Amino-5-fluoropiperidine-1-carbonyl]-3-methylpyrazolo[1,5-a]pyridin-2-yl}-1-(cyclopropylmethyl)-1H-indol-6-yl)benzamide]",190
6,"Cc1c(-c2cc3ccc(-c4ccc(C(N)=O)cc4)cc3n2CC2CC2)nn2cc(C(=O)N3C[C@H](N)C[C@@H](F)C3)ccc12 [Example 373, 4-(2-{6-[(3R,5R)-3-Amino-5-fluoropiperidine-1-carbonyl]-3-methylpyrazolo[1,5-a]pyridin-2-yl}-1-(cyclopropylmethyl)-1H-indol-6-yl)benzamide]",200
7,"Cc1c(-c2cc3ccc(-c4cc(Cl)c(CO)cc4F)cc3n2CC2CC2)nn2cc(C(=O)N3C[C@H](N)C[C@@H](F)C3)ccc12 [Example 375, [4-(2-{6-[(3R,5R)-3-Amino-5-fluoropiperidine-1-carbonyl]-3-methylpyrazolo[1,5-a]pyridin-2-yl}-1-(cyclopropylmethyl)-1H-indol-6-yl)-2-chloro-5-fluorophenyl]methanol]",1360
8,"Cc1cc(-c2ccc3cc(-c4nn5cc(C(=O)N6C[C@H](N)C[C@@H](F)C6)ccc5c4C)n(CC4CC4)c3c2)ccc1C(N)=O [Example 378, 4-(2-{6-[(3R,5R)-3-Amino-5-fluoropiperidine-1-carbonyl]-3-methylpyrazolo[1,5-a]pyridin-2-yl}-1-(cyclopropylmethyl)-1H-indol-6-yl)-2-methylbenzamide]",450
9,"Cc1c(-c2cc3ccc(-c4ccn5c(C)nnc5c4)cc3n2CC2CC2)nn2cc(C(=O)N3C[C@H](N)C[C@@H](F)C3)ccc12 [Example 379, (3R,5R)-1-{2-[1-(Cyclopropylmethyl)-6-{3-methyl-[1,2,4]triazolo[4,3-a]pyridin-7-yl}-1H-indol-2-yl]-3-methylpyrazolo[1,5-a]pyridine-6-carbonyl}-5-fluoropiperidin-3-amine]",160
10,"Cc1c(-c2cc3ccc(C(C)(O)C4CC4)nc3n2CC2CC2)nn2cc(C(=O)N3CC4CCC3[C@@H]4N)cc(F)c12 (stereo partly drawn) [Example 384, 1-(2-{6-[(7R)-7-Amino-2-azabicyclo[2.2.1]heptane-2-carbonyl]-4-fluoro-3-methylpyrazolo[1,5-a]pyridin-2-yl}-1-(cyclopropylmethyl)-1H-pyrrolo[2,3-b]pyridin-6-yl)-1-cyclopropylethan-1-ol]",200
11,"COc1cc(C(=O)N2C[C@H](N)C[C@@H](F)C2)cn2nc(-c3cc4cccc(C5CCN(C(=O)[C@@H](C)OC)CC5)c4n3CC3CC3)c(C)c12 [Example 395, (R)-1-(4-(2-(6-((3R,5R)-3-Amino-5-fluoropiperidine-1-carbonyl)-4-methoxy-3-methylpyrazolo[1,5-a]pyridin-2-yl)-1-(cyclopropylmethyl)-1H-indol-7-yl)piperidin-1-yl)-2-methoxypropan-1-one]",140
12,"COc1cc(C(=O)N2CCC[C@@H](N)C2)cn2nc(-c3cc4cccc(C5CCN(C(=O)[C@H](C)OC)CC5)c4n3CC3CC3)c(C)c12 [Example 403, (S)-1-(4-(2-(6-((R)-3-Aminopiperidine-1-carbonyl)-4-methoxy-3-methylpyrazolo[1,5-a]pyridin-2-yl)-1-(cyclopropylmethyl)-1H-indol-7-yl)piperidin-1-yl)-2-methoxypropan-1-one]",460

# More lines, in order of falling IC50, values ahead:
row,IC50 [nM],Compound
1,140,"Cc1c(-c2cc3ccc(C(C)(C)O)nc3n2CC2CC2)nn2cc(C(=O)N3CCC[C@@H](N)C3)ccc12 [Example 380, 2-(2-{6-[(3R)-3-Aminopiperidine-1-carbonyl]-3-methylpyrazolo[1,5-a]pyridin-2-yl}-1-(cyclopropylmethyl)-1H-pyrrolo[2,3-b]pyridin-6-yl)propan-2-ol]"
2,130,"Cc1c(-c2cc3ccc(-c4ccc(CNS(C)(=O)=O)cc4)cc3n2CC2CC2)nn2cc(C(=O)N3C[C@H](N)C[C@@H](F)C3)ccc12 [Example 370, N-{[4-(2-{6-[(3R,5R)-3-Amino-5-fluoropiperidine-1-carbonyl]-3-methylpyrazolo[1,5-a]pyridin-2-yl}-1-(cyclopropylmethyl)-1H-indol-6-yl)phenyl]methyl}methanesulfonamide]"
3,120,"Cc1c(-c2ccc3cc(-c4nn5cc(C(=O)N6C[C@H](N)C[C@@H](F)C6)ccc5c4C)n(CC4CC4)c3c2)cc(F)c2[nH]c(=O)ccc12 [Example 376, 6-(2-{6-[(3R,5R)-3-Amino-5-fluoropiperidine-1-carbonyl]-3-methylpyrazolo[1,5-a]pyridin-2-yl}-1-(cyclopropylmethyl)-1H-indol-6-yl)-8-fluoro-5-methyl-1,2-dihydroquinolin-2-one]"
4,90,"Cc1c(-c2cc3ccc(-c4ccc(C(N)=O)cc4Cl)cc3n2CC2CC2)nn2cc(C(=O)N3C[C@H](N)C[C@@H](F)C3)ccc12 [Example 377, 4-(2-{6-[(3R,5R)-3-Amino-5-fluoropiperidine-1-carbonyl]-3-methylpyrazolo[1,5-a]pyridin-2-yl}-1-(cyclopropylmethyl)-1H-indol-6-yl)-3-chlorobenzamide]"
5,60,"COc1cc(C(=O)N2CCC[C@@H](N)C2)cn2nc(-c3cc4cccc(C5CCN(C(=O)[C@@H](C)OC)CC5)c4n3CC3CC3)c(C)c12 [Example 402, (R)-1-(4-(2-(6-((R)-3-Aminopiperidine-1-carbonyl)-4-methoxy-3-methylpyrazolo[1,5-a]pyridin-2-yl)-1-(cyclopropylmethyl)-1H-indol-7-yl)piperidin-1-yl)-2-methoxypropan-1-one]"
6,40,"Cc1c(-c2cc3ccc(C(C)(O)C(F)(F)F)nc3n2CC2CC2)nn2cc(C(=O)N3CC4CCC3[C@@H]4N)cc(F)c12 (stereo partly drawn) [Example 383, 2-(2-{6-[(7R)-7-Amino-2-azabicyclo[2.2.1]heptane-2-carbonyl]-4-fluoro-3-methylpyrazolo[1,5-a]pyridin-2-yl}-1-(cyclopropylmethyl)-1H-pyrrolo[2,3-b]pyridin-6-yl)-1,1,1-trifluoropropan-2-ol]"
7,30,"COc1cc(C(=O)N2C[C@H](N)C[C@@H](F)C2)cn2nc(-c3cc4cccc(C5CCN(C(=O)[C@H](C)OC)CC5)c4n3CC3CC3)c(C)c12 [Example 404, (S)-1-(4-(2-(6-((3R,5R)-3-Amino-5-fluoropiperidine-1-carbonyl)-4-methoxy-3-methylpyrazolo[1,5-a]pyridin-2-yl)-1-(cyclopropylmethyl)-1H-indol-7-yl)piperidin-1-yl)-2-methoxypropan-1-one]"
8,20,"Cc1c(-c2cc3ccc(-c4ccc(NS(C)(=O)=O)cc4)cc3n2CC2CC2)nn2cc(C(=O)N3C[C@H](N)C[C@@H](F)C3)ccc12 [Example 369, N-[4-(2-{6-[(3R,5R)-3-Amino-5-fluoropiperidine-1-carbonyl]-3-methylpyrazolo[1,5-a]pyridin-2-yl}-1-(cyclopropylmethyl)-1H-indol-6-yl)phenyl]methanesulfonamide]"
9,20,"COCC(=O)N1CCC(c2cccc3cc(-c4nn5cc(C(=O)N6CCC[C@@H](N)C6)cc(OC)c5c4C)n(CC4CC4)c23)CC1 [Example 401, (R)-1-(4-(2-(6-(3-Aminopiperidine-1-carbonyl)-4-methoxy-3-methylpyrazolo[1,5-a]pyridin-2-yl)-1-(cyclopropylmethyl)-1H-indol-7-yl)piperidin-1-yl)-2-methoxyethan-1-one]"
10,20,"COCC(=O)N1CCC(c2cccc3cc(-c4nn5cc(C(=O)N6C[C@H](N)C[C@@H](F)C6)cc(OC)c5c4C)n(CC4CC4)c23)CC1 [Example 405, 1-(4-(2-(6-((3R,5R)-3-Amino-5-fluoropiperidine-1-carbonyl)-4-methoxy-3-methylpyrazolo[1,5-a]pyridin-2-yl)-1-(cyclopropylmethyl)-1H-indol-7-yl)piperidin-1-yl)-2-methoxyethan-1-one]"
11,10,"COc1cc(C(=O)N2C[C@H](N)C[C@@H](F)C2)cn2nc(-c3cc4cccc(C5CCN(C(=O)[C@H]6CC[C@H](O)CC6)CC5)c4n3CC3CC3)c(C)c12 [Example 391, ((3R,5R)-3-Amino-5-fluoropiperidin-1-yl)(2-(1-(cyclopropylmethyl)-7-(1-((1r,4r)-4-hydroxycyclohexane-1-carbonyl)piperidin-4-yl)-1H-indol-2-yl)-4-methoxy-3-methylpyrazolo[1,5-a]pyridin-6-yl)methanone]"
